From patent publication US10287295B2, “TGF-β inhibitors” (Rigel Pharmaceuticals, Inc., priority 2015, dated 2019)

What was measured:
[1] = test system: GDF8 signaling (GDF pSMAD, MPC11); assay: AlphaScreen SureFire SMAD3 (p-Ser423/425) assay, inhibition of GDF8 signaling; format: cell-based; settings: Mus musculus, MPC-11, inhibition of GDF8 signaling, p-SMAD3 readout
[2] = test system: TGF-β signaling (TGF-β pSMAD, MPC-11); assay: AlphaScreen SureFire SMAD3 (p-Ser423/425) assay, inhibition of TGF-β signaling; format: cell-based; settings: Mus musculus, MPC-11, inhibition of TGF-β signaling, p-SMAD3 readout

IC50 [1] [µM] | IC50 [2] [µM] | SMILES
0.01 | 0.01 | Cc1cc(-c2nc[nH]c2-c2ccc3[nH]ncc3c2)ccc1F [Compound 3, 5-(4-(4-Fluoro-3-methylphenyl)-1H-imidazol-5-yl)-1H-indazole]
0.08 | 0.51 | Cc1nc(-c2cccc(Cl)c2)c(-c2ccc3nccn3c2)[nH]1 [Compound 104, 6-(4-(3-Chlorophenyl)-2-methyl-1H-imidazol-5-yl)imidazo[1,2-a]pyridine]
0.06 | 0.25 | Cn1cnc(-c2ccc(F)cc2)c1-c1ccc2[nH]ncc2c1 [Compound 48, −(4-(4-Fluorophenyl)-1-methyl-1H-imidazol-5-yl)-1H-indazole]
0.57 | 2.54 | CCc1nc(-c2cccc(F)c2)c(-c2ccc3ncsc3c2)[nH]1 [Compound 137, 6-(2-Ethyl-4-(3-fluorophenyl)-1H-imidazol-5-yl)benzo[d]thiazole]
0.21 | 0.91 | Cc1cc(-c2nc(C)n(C)c2-c2ccc3[nH]ncc3c2)ccc1F [Compound 52, 5-(4-(4-Fluoro-3-methylphenyl)-1,2-dimethyl-1H-imidazol-5-yl)-1H-indazole]
0.15 | 0.87 | CCc1nc(-c2ccc(F)c(C)c2)c(-c2ccc3ncsc3c2)[nH]1 [Compound 109, 6-(2-Ethyl-4-(4-fluoro-3-methylphenyl)-1H-imidazol-5-yl)benzo[d]thiazole]
0.365 | 1.49 | Nc1nc(-c2cccc(F)c2)c(-c2ccc3nccnc3c2)s1 [Compound 183, 4-(3-fluorophenyl)-5-(quinoxalin-6-yl)thiazol-2-amine]
0.1 | 0.95 | Cc1nc(-c2ccc(F)c(C)c2)c(-c2ccc3ncsc3c2)[nH]1 [Compound 73, 6-(4-(4-Fluoro-3-methylphenyl)-2-methyl-1H-imidazol-5-yl)benzo[d]thiazole]
0.36 | 2.21 | CCc1nc(-c2ccc(F)c(F)c2)c(-c2ccc3ncsc3c2)[nH]1 [Compound 133, 6-(4-(3,4-Difluorophenyl)-2-ethyl-1H-imidazol-5-yl)benzo[d]thiazole]
0.05 | 0.14 | Cc1cccc(-c2nc[nH]c2-c2ccc3ncn(C)c3c2)c1 [Compound 17, 1-Methyl-6-(4-(m-tolyl)-1H-imidazol-5-yl)-1H-benzo[d]imidazole]
0.054 | 0.169 | COc1ccc(-c2nc(N)sc2-c2ccc3nccn3c2)cc1 [Compound 163, 5-(imidazo[1,2-a]pyridin-6-yl)-4-(4-methoxyphenyl)thiazol-2-amine]
0.0256 | 0.16 | COc1ccc(-c2nc(N)sc2-c2ccc3[nH]ncc3c2)cc1 [Compound 157, 5-(1H-indazol-5-yl)-4-(4-methoxyphenyl)thiazol-2-amine]
0.87 | 2.54 | CCc1nc(-c2ccc(F)c(F)c2)c(-c2ccc3nccn3c2)[nH]1 [Compound 134, 6-(4-(3,4-Difluorophenyl)-2-ethyl-1H-imidazol-5-yl)imidazo[1,2-a]pyridine]
0.55 | 2.21 | CCc1nc(-c2cc(C)cc(F)c2)c(-c2ccc3nccnc3c2)[nH]1 [Compound 147, 6-(2-Ethyl-4-(3-fluoro-5-methylphenyl)-1H-imidazol-5-yl)quinoxaline]
0.0523 | 0.127 | Cc1cc(-c2nc(N)sc2-c2ccc3ncsc3c2)ccc1F [Compound 162, 5-(benzo[d]thiazol-6-yl)-4-(4-fluoro-3-methylphenyl)thiazol-2-amine]
0.06 | 0.33 | Cc1cc(-c2ncn(C)c2-c2ccc3ncsc3c2)ccc1F [Compound 9, 6-(4-(4-Fluoro-3-methylphenyl)-1-methyl-1H-imidazol-5-yl)benzo[d]thiazole]
0.336 | 4.55 | Fc1ccc(-c2ncsc2-c2ccc3ncsc3c2)cc1 [Compound 181, 6-(4-(4-fluorophenyl)thiazol-5-yl)benzo[d]thiazole]
0.03 | 0.15 | Cn1cnc(-c2cccc(Cl)c2)c1-c1ccc2cn[nH]c2c1 [Compound 61, 6-(4-(3-Chlorophenyl)-1-methyl-1H-imidazol-5-yl)-1H-indazole]
0.57 | 1.21 | Cn1cnc(-c2ccc(F)cc2)c1-c1ccc2cn[nH]c2c1 [Compound 49, 6-(4-(4-Fluorophenyl)-1-methyl-1H-imidazol-5-yl)-1H-indazole]
0.7 | 5.22 | COc1ccc(-c2ncn(C)c2-c2ccc3cn[nH]c3c2)cc1 [Compound 70, 6-(4-(4-Methoxyphenyl)-1-methyl-1H-imidazol-5-yl)-1H-indazole]
0.09 | 0.12 | Fc1cccc(-c2nc[nH]c2-c2ccc3[nH]ncc3c2)c1 [Compound 27, 5-(4-(3-Fluorophenyl)-1H-imidazol-5-yl)-1H-indazole]
0.2 | 1.41 | Cc1nc(-c2ccc(F)c(C)c2)c(-c2ccc3nccn3c2)[nH]1 [Compound 74, 6-(4-(4-Fluoro-3-methylphenyl)-2-methyl-1H-imidazol-5-yl)imidazo[1,2-a]pyridine]

IC50 [1] [µM] | IC50 [2] [µM] | SMILES
0.28 | 1.37 | CCc1nc(-c2ccc(F)c(C)c2)c(-c2ccc3nccnc3c2)[nH]1 [Compound 112, 6-(2-Ethyl-4-(4-fluoro-3-methylphenyl)-1H-imidazol-5-yl)quinoxaline]
0.31 | 1.53 | CCc1nc(-c2cc(C)cc(F)c2)c(-c2ccc3ncnn3c2)[nH]1 [Compound 144, 6-(2-Ethyl-4-(3-fluoro-5-methylphenyl)-1H-imidazol-5-yl)-[1,2,4]triazolo[1,5-a]pyridine]
0.46 | 1.22 | Fc1cccc(-c2nc[nH]c2-c2ccc3ncccc3c2)c1 [Compound 40, 6-(4-(3-Fluorophenyl)-1H-imidazol-5-yl)quinoline]
0.77 | 3.42 | CCc1nc(-c2ccc(F)c(F)c2)c(-c2ccc3nccnc3c2)[nH]1 [Compound 135, 6-(4-(3,4-Difluorophenyl)-2-ethyl-1H-imidazol-5-yl)quinoxaline]
0.15 | 0.73 | Cc1cccc(-c2nc[nH]c2-c2ccc3nccn3c2)c1 [Compound 19, 6-(4-(m-Tolyl)-1H-imidazol-5-yl)imidazo[1,2-a]pyridine]
0.19 | 0.57 | CCc1nc(-c2cccc(Cl)c2)c(-c2ccc3nccn3c2)[nH]1 [Compound 127, 6-(4-(3-Chlorophenyl)-2-ethyl-1H-imidazol-5-yl)imidazo[1,2-a]pyridine]
0.22 | 0.26 | Clc1cccc(-c2nc[nH]c2-c2ccc3nccn3c2)c1 [Compound 26, 6-(4-(3-Chlorophenyl)-1H-imidazol-5-yl)imidazo[1,2-a]pyridine]
0.13 | 0.69 | Cc1nc(-c2cccc(Cl)c2)c(-c2ccc3ncnn3c2)[nH]1 [Compound 103, 6-(4-(3-Chlorophenyl)-2-methyl-1H-imidazol-5-yl)-[1,2,4]triazolo[1,5-a]pyridine]
0.33 | 2.18 | CCc1nc(-c2cccc(C)c2)c(-c2ccc3nccn3c2)[nH]1 [Compound 117, 6-(2-Ethyl-4-(m-tolyl)-1H-imidazol-5-yl)imidazo[1,2-a]pyridine]
0.75 | 2.3 | CCc1nc(-c2cccc(F)c2)c(-c2ccc3ncnn3c2)[nH]1 [Compound 136, 6-(2-Ethyl-4-(3-fluorophenyl)-1H-imidazol-5-yl)-[1,2,4]triazolo[1,5-a]pyridine]
0.078 | 0.215 | Cc1cc(-c2ncsc2-c2ccc3nccn3c2)ccc1F [Compound 167, 4-(4-fluoro-3-methylphenyl)-5-(imidazo[1,2-a]pyridin-6-yl)thiazole]
0.67 | 4.39 | CCc1nc(-c2cc(C)cc(F)c2)c(-c2ccc3[nH]ncc3c2)[nH]1 [Compound 142, 5-(2-Ethyl-4-(3-fluoro-5-methylphenyl)-1H-imidazol-5-yl)-1H-indazole]
0.05 | 0.14 | Fc1ccc(-c2nc[nH]c2-c2ccc3cn[nH]c3c2)cc1F [Compound 32, 6-(4-(3,4-Difluorophenyl)-1H-imidazol-5-yl)-1H-indazole]
0.78 | 2.71 | Cn1cnc(-c2ccc(F)cc2)c1-c1ccc2ncsc2c1 [Compound 51, 6-(4-(4-Fluorophenyl)-1-methyl-1H-imidazol-5-yl)benzo[d]thiazole]
0.06 | 0.23 | Cn1cnc(-c2cccc(Cl)c2)c1-c1ccc2ncsc2c1 [Compound 63, 6-(4-(3-Chlorophenyl)-1-methyl-1H-imidazol-5-yl)benzo[d]thiazole]
0.45 | 3.14 | CCc1nc(-c2cc(C)cc(F)c2)c(-c2ccc3cn[nH]c3c2)[nH]1 [Compound 143, 6-(2-Ethyl-4-(3-fluoro-5-methylphenyl)-1H-imidazol-5-yl)-1H-indazole]
0.235 | 1.03 | COc1cccc(-c2nc(N)sc2-c2ccc3[nH]ncc3c2)c1 [Compound 177, 5-(1H-indazol-5-yl)-4-(3-methoxyphenyl)thiazol-2-amine]
0.79 | 4.48 | CCc1nc(-c2ccc(F)c(C)c2)c(-c2ccc3ncccc3c2)[nH]1 [Compound 111, 6-(2-Ethyl-4-(4-fluoro-3-methylphenyl)-1H-imidazol-5-yl)quinoline]
0.14 | 0.5 | Cc1nc(-c2cccc(Cl)c2)c(-c2ccc3[nH]ncc3c2)[nH]1 [Compound 101, 5-(4-(3-Chlorophenyl)-2-methyl-1H-imidazol-5-yl)-1H-indazole]
0.41 | 3.1 | Cc1cc(-c2nc(C)n(C)c2-c2ccc3ncn(C)c3c2)ccc1F [Compound 54, 6-(4-(4-Fluoro-3-methylphenyl)-1,2-dimethyl-1H-imidazol-5-yl)-1-methyl-1H-benzo[d]imidazole]
0.02 | 0.03 | Clc1cccc(-c2nc[nH]c2-c2ccc3[nH]ncc3c2)c1 [Compound 22, 5-(4-(3-Chlorophenyl)-1H-imidazol-5-yl)-1H-indazole]
